From patent US20250339462A1, “CANCER TREATMENT USING ULTRA-HIGH CONCENTRATION GASEOUS NITRIC OXIDE AND A CHECKPOINT INHIBITOR” (Beyond Air, Inc., priority 2022, published 2025)

System: AH-1+CD8+ T-cells (tumor antigen-specific CD8+ T-cells)
Test: Flow cytometry for tumor antigen-specific CD8+ T-cells in blood of CT26 tumor-bearing mice
Type: in vivo, mouse
Conditions: day 7 after UNO treatment
Method: Preparation of cancer cells for injection—Mouse colon carcinoma CT26.WT cells (ATCC, Cat no. CRL-2638) suspended in Hanks' Balanced Salt Solution (HBSS) (Biological Industries, Israel), at a concentration of 5.0×10^6 cells/ml, were freshly prepared on the day of cancer model induction. Cells were grown to 70% confluency and were harvested using trypsin (Biological Industries, Israel), and counted using a cell counter device. The cells were then centrifuged at 1,200 rpm (241×g) for 8 minutes, and the pellet was re-suspended in ice cold HBSS at 5.0×10^6 in 1 ml (5.0×10^5 cells in 100 μl solution). Cell viability was >90% as determined by trypan blue staining prior to inoculation to mice. At the point of inoculation, cells were at passage 8 at most. […]
UNO treatment—On the day of treatment, mice were anesthetized by an intra-peritoneal (i.p.) injection of 100 mg/kg ketamine and 10 mg/kg of xylazine hydrochloride solution. […] After treatment, all mice were warmed and closely monitored until complete recovery was observed. […]
Flow cytometry for tumor antigen-specific CD8+ T-cells—On day 7 after the UNO treatment, 100 μl of peripheral blood was collected by submandibular bleeding from each mouse into tubes containing 0.5M EDTA PH 8.0. […] Data was analyzed using the FlowJo software.

Compound: [N]=O [UNO, nitric oxide]
- Systemic levels of AH-1+CD8+ T-cells vs untreated or naive mice: higher
- AH-1+CD8+ T-cells in the blood (UNO 100,000 ppm 5 min, anti-mCTLA-4 5 mg/kg i.p. twice): detected in the blood of all mice
